US12421279B2, “Cyclic peptide antiviral agents and methods using same” (priority 2016, dated 2025)
Where “and” joins values, the source holds several entries; their conditions need not be identical. Equal entries are not always repeated. Where two headings read alike, the source gives them in different places. *1 amine or outer side, *2 acyl side, *3 side chain or, on linkers, in order; H or OH if unused. Where a SMILES comes first, the peptide text is derived from it. Bridges are numbered along the chain shown (N, C = ends). [ ]: non-standard residue; d: D form. X2 = O=C([C@@H]1C[C@H](n2cc([C]34[CH]5[CH]6[CH]7[CH]3[Fe]6754389%10[CH]4[CH]3[CH]8[CH]9[CH]4%10)nn2)CN1[*:1])[*:2]; X17 = O=C([C@@H]1C[C@H](n2cc(C3=CC=C[CH]3[Fe][CH]3C=CC=C3)nn2)CN1[*:1])[*:2]; X15 = CC(C)(C)c1ccc(-c2cn([C@H]3C[C@@H](C(=O)[*:2])N([*:1])C3)nn2)cc1; X18 = O=C([C@@H]1C[C@H](n2cc(-c3ccc(-c4ccccc4)cc3)nn2)CN1[*:1])[*:2]; X1 = O=C([C@@H]1C[C@H](n2cc(-c3ccc(-c4cccs4)cc3)nn2)CN1[*:1])[*:2]; X16 = CC(C)c1ccc(-c2cn([C@H]3C[C@@H](C(=O)[*:2])N([*:1])C3)nn2)cc1; X11 = Cc1ccc(Cc2cn([C@H]3C[C@@H](C(=O)[*:2])N([*:1])C3)nn2)c(C)c1; X19 = Cc1cc(C)cc(Cc2cn([C@H]3C[C@@H](C(=O)[*:2])N([*:1])C3)nn2)c1; X4 = O=C([C@@H]1C[C@H](n2cc(C3C4CC5CC(C4)CC3C5)nn2)CN1[*:1])[*:2]; X6 = O=C([C@@H]1C[C@H](n2cc(-c3ccc(-c4cccs4)s3)nn2)CN1[*:1])[*:2]; X12 = O=C([C@@H]1C[C@H](n2cc(Cc3ccc(Cl)c(F)c3)nn2)CN1[*:1])[*:2]; X13 = O=C([C@@H]1C[C@H](n2cc(-c3cc4ccccc4cn3)nn2)CN1[*:1])[*:2]; X20 = Cc1ccc(Cc2cn([C@H]3C[C@@H](C(=O)[*:2])N([*:1])C3)nn2)cc1C; X10 = Cc1ccc(Cc2cn([C@H]3C[C@@H](C(=O)[*:2])N([*:1])C3)nn2)cc1; X9 = CCc1ccc(-c2cn([C@H]3C[C@@H](C(=O)[*:2])N([*:1])C3)nn2)cc1; X7 = Cc1cccc(Cc2cn([C@H]3C[C@@H](C(=O)[*:2])N([*:1])C3)nn2)c1; X8 = O=C([C@@H]1C[C@H](n2cc(Cc3ccc(Cl)cc3)nn2)CN1[*:1])[*:2]; X3 = Cc1ccccc1Cc1cn([C@H]2C[C@@H](C(=O)[*:2])N([*:1])C2)nn1; X5 = O=C([C@@H]1C[C@H](n2cc(Cc3ccc(I)cc3)nn2)CN1[*:1])[*:2]; X14 = O=C([C@@H]1C[C@H](n2cc(Cc3ccccc3)nn2)CN1[*:1])[*:2]; Suc = O=C(CCC(=O)[*:2])[*:1]

Experiments:
wild type gp120 YU-2 = target: T1, wild type gp120 YU-2 (Human immunodeficiency virus type 1 group M subtype B, UniProt P35961); test: Isothermal titration calorimetry binding to gp120; design: species or system HIV-1
T1 construct: into 30 μM of YU2 full-length gp120 at 25° C; made in house; host or cells: HEK 293F
Procedure: FIGS. 9A-9C illustrate cPT binding and thermodynamic profile of monomeric wild type gp120 YU-2 for cPTs 3 (FIGS. 9A and 9C) and 36 (FIGS. 9B and 9C). Compound solution, 390 μM (for 3) or 200 μM (for 36), was titrated in 8 μL steps into 30 μM of YU2 full-length gp120 at 25° C. in the reaction chamber of a VP-ITC instrument using 1×PBS buffer at pH 7.3. The resulting heat changes were integrated, and the values obtained were fitted to a quadratic binding equation (one site binding model).
cPT dissociation constants were determined at 25° C. on a VP-Isothermal Titration calorimeter (VP-ITC) system (MicroCal™, GE Healthcare, Freiburg). 200 μM (for 36) or 390 μM (for 3) compound solutions were in 8 μL steps titrated into 30 μM of wild type gp120 YU-2 at 25° C. using 1×PBS buffer at pH 7.3. The resulting heat change upon injection was integrated over a time range of 300 sec, and the obtained values were fitted to a standard single-site binding model using ORIGIN®.

HOS.T4.R5 cells = details: highest concentrations used 100 μM, 24 h post-exposure
Procedure: cPTs 36 and 37 were tested for cytotoxicity in vitro with HOS.T4.R5 cells. The latter were seeded at […] per well and incubated with peptides as described elsewhere herein for the infection inhibition assays. Cell viability was determined using the tetrazolium salt premix reagent WST-1 from TaKaRa Bio, Inc., by following the manufacturer's protocol. The formazan product was measured 24 h post-exposure using a microplate reader (Molecular Devices) at an absorbance wavelength of 450 nm.

[1] = read-out: HIV-1Bal.01 infection inhibition IC50, HIV-1Bal.01 pseudovirus, HOS.T4.R5 cells
[2] = read-out: HIV-1 IC50, HIV-1Bal.01 infection inhibition, Table 1

Row | Compound | IC50 (HIV-1Bal.01; [1]) | IC50 (HIV-1Bal.01; [2]) | further results
1 | CC[C@H](C)[C@@H]1NC(=O)[C@H](CC(N)=O)NC(=O)CCC(=O)NCCCC[C@@H](C(N)=O)NC(=O)[C@H](Cc2c[nH]c3ccccc23)NC(=O)[C@@H]2C[C@H](n3cc(-c4ccc(-c5cccs5)cc4)nn3)CN2C1=O [compound 38] (NI[X1]WK-NH2; linker N-5 via Suc) | ~882 nM and 882 nM |  | fold decrease in potency compared to 36 (HIV-1Bal.01; infection inhibition): about 8 fold
2 | CC[C@H](C)[C@@H]1NC(=O)[C@H](CC(N)=O)NC(=O)[C@@H](N)CC(=O)NCCCC[C@@H](C(N)=O)NC(=O)[C@H](Cc2c[nH]c3ccccc23)NC(=O)[C@@H]2C[C@H](n3cc(Cc4ccccc4C)nn3)CN2C1=O [cPT 25] (H-DNI[X3]WK-NH2; lactam 1-6 (inferred); N-terminus and C-terminus assumed) | ~5100 nM | 5100 ± 220 nM | 
3 | CC[C@H](C)[C@@H]1NC(=O)[C@H](CC(N)=O)NC(=O)[C@@H](N)CC(=O)NCCCC[C@@H](C(N)=O)NC(=O)[C@H](Cc2c[nH]c3ccccc23)NC(=O)[C@@H]2C[C@H](n3cc(C4=CC=C[CH]4[Fe][CH]4C=CC=C4)nn3)CN2C1=O (stereo partly shown) [cPT 3] (H-DNI[X17]WK-NH2; lactam 1-6) |  |  | Kd (wild type gp120 YU-2): 415 nM
4 | CC[C@H](C)[C@@H]1NC(=O)[C@H](CC(N)=O)NC(=O)[C@@H](N)CC(=O)NCCCC[C@@H](C(N)=O)NC(=O)[C@H](Cc2c[nH]c3ccccc23)NC(=O)[C@@H]2C[C@H](n3cc(-c4ccc(C(C)(C)C)cc4)nn3)CN2C1=O [compound 22] (H-DNI[X15]WK-NH2; lactam 1-6) | ~350 nM | 350 ± 25 nM | 
5 | CC[C@H](C)[C@@H]1NC(=O)[C@H](CC(N)=O)NC(=O)[C@@H](N)CC(=O)NCCCC[C@@H](C(N)=O)NC(=O)[C@H](Cc2c[nH]c3ccccc23)NC(=O)[C@@H]2C[C@H](n3cc(C4C5CC6CC(C5)CC4C6)nn3)CN2C1=O (stereo partly shown) [compound 18] (H-DNI[X4]WK-NH2; lactam 1-6) | ~1300 nM | 1400 ± 200 nM | 
6 | CC[C@H](C)[C@@H]1NC(=O)[C@H](CC(N)=O)NC(=O)[C@@H](N)CC(=O)NCCCC[C@@H](C(N)=O)NC(=O)[C@H](Cc2c[nH]c3ccccc23)NC(=O)[C@@H]2C[C@H](n3cc(Cc4ccc(C)c(C)c4)nn3)CN2C1=O [cPT 29] (H-DNI[X20]WK-NH2; lactam 1-6 (inferred); N-terminus and C-terminus assumed) | 8000 nM |  | 
7 | CC[C@H](C)[C@@H]1NC(=O)[C@H](CC(N)=O)NC(=O)[C@@H](N)CC(=O)NCCCC[C@@H](C(N)=O)NC(=O)[C@H](Cc2c[nH]c3ccccc23)NC(=O)[C@@H]2C[C@H](n3cc(Cc4cc(C)cc(C)c4)nn3)CN2C1=O [cPT 28] (H-DNI[X19]WK-NH2; lactam 1-6 (inferred); N-terminus and C-terminus assumed) | 2000 nM |  | 
8 | CC[C@H](C)[C@@H]1NC(=O)[C@H](CC(N)=O)NC(=O)[C@@H](N)CC(=O)NCCCC[C@@H](C(N)=O)NC(=O)[C@H](Cc2c[nH]c3ccccc23)NC(=O)[C@@H]2C[C@H](n3cc(-c4ccc(-c5cccs5)s4)nn3)CN2C1=O [compound 37] (H-DNI[X6]WK-NH2; lactam 1-6) | 405 nM |  | cytotoxicity (cell viability) (HOS.T4.R5 cells): no cytotoxicity was detected
9 | CC[C@H](C)[C@@H]1NC(=O)[C@H](CC(N)=O)NC(=O)[C@@H](N)CC(=O)NCCCC[C@@H](C(N)=O)NC(=O)[C@H](Cc2c[nH]c3ccccc23)NC(=O)[C@@H]2C[C@H](n3cc(Cc4ccc(Cl)cc4)nn3)CN2C1=O [compound 31] (H-DNI[X8]WK-NH2; lactam 1-6) | ~1800 nM | 1800 ± 500 nM | 
10 | CC[C@H](C)[C@@H]1NC(=O)[C@H](CC(N)=O)NC(=O)[C@@H](N)CC(=O)NCCCC[C@@H](C(N)=O)NC(=O)[C@H](Cc2c[nH]c3ccccc23)NC(=O)[C@@H]2C[C@H](n3cc(Cc4ccccc4)nn3)CN2C1=O [compound 19] (H-DNI[X14]WK-NH2; lactam 1-6) | ~438 nM | 438 ± 12 nM | 
11 | CC[C@H](C)[C@@H]1NC(=O)[C@H](CC(N)=O)NC(=O)[C@@H](N)CC(=O)NCCCC[C@@H](C(N)=O)NC(=O)[C@H](Cc2c[nH]c3ccccc23)NC(=O)[C@@H]2C[C@H](n3cc([C]45[CH]6[CH]7[CH]8[CH]4[Fe]786549%10%11[CH]5[CH]4[CH]9[CH]%10[CH]5%11)nn3)CN2C1=O (stereo partly shown) [cPT 3] (H-DNI[X2]WK-NH2; lactam 1-6) |  |  | ΔH (wild type gp120 YU-2; ITC, 25° C.): -5.96 kcal/mol and -5.96 ± 0.13 kcal/mol; ΔS (wild type gp120 YU-2; ITC, 25° C.): 0.00922 kcal/mol; −TΔS (wild type gp120 YU-2; ITC, 25° C.): -2.75 kcal/mol
12 | CCc1ccc(-c2cn([C@H]3C[C@H]4C(=O)N[C@@H](Cc5c[nH]c6ccccc56)C(=O)N[C@H](C(N)=O)CCCCNC(=O)C[C@H](N)C(=O)N[C@@H](CC(N)=O)C(=O)N[C@@H]([C@@H](C)CC)C(=O)N4C3)nn2)cc1 [compound 20] (H-DNI[X9]WK-NH2; lactam 1-6) | ~1200 nM | 1200 ± 500 nM | 
13 | CC[C@H](C)[C@@H]1NC(=O)[C@H](CC(N)=O)NC(=O)[C@@H](N)CC(=O)NCCCC[C@@H](C(N)=O)NC(=O)[C@H](Cc2c[nH]c3ccccc23)NC(=O)[C@@H]2C[C@H](n3cc(-c4ccc(-c5ccccc5)cc4)nn3)CN2C1=O [compound 23] (H-DNI[X18]WK-NH2; lactam 1-6) | 269 nM |  | 
14 | CC[C@H](C)[C@@H]1NC(=O)[C@H](CC(N)=O)NC(=O)[C@@H](N)CC(=O)NCCCC[C@@H](C(N)=O)NC(=O)[C@H](Cc2c[nH]c3ccccc23)NC(=O)[C@@H]2C[C@H](n3cc(Cc4ccc(C)cc4C)nn3)CN2C1=O [cPT 27] (H-DNI[X11]WK-NH2; lactam 1-6 (inferred); N-terminus and C-terminus assumed) | ~302 nM | 302 ± 50 nM | 
15 | CC[C@H](C)[C@@H]1NC(=O)[C@H](CC(N)=O)NC(=O)[C@@H](N)CC(=O)NCCCC[C@@H](C(N)=O)NC(=O)[C@H](Cc2c[nH]c3ccccc23)NC(=O)[C@@H]2C[C@H](n3cc(Cc4ccc(I)cc4)nn3)CN2C1=O [cPT 33] (H-DNI[X5]WK-NH2; lactam 1-6) | ~6000 nM | 6000 ± 450 nM | 
16 | CC[C@H](C)[C@@H]1NC(=O)[C@H](CC(N)=O)NC(=O)[C@@H](N)CC(=O)NCCCC[C@@H](C(N)=O)NC(=O)[C@H](Cc2c[nH]c3ccccc23)NC(=O)[C@@H]2C[C@H](n3cc(Cc4cccc(C)c4)nn3)CN2C1=O [cPT 26] (H-DNI[X7]WK-NH2; lactam 1-6 (inferred); N-terminus and C-terminus assumed) | ~220 nM | 220 ± 42 nM | 
17 | CC[C@H](C)[C@@H]1NC(=O)[C@H](CC(N)=O)NC(=O)[C@@H](N)CC(=O)NCCCC[C@@H](C(N)=O)NC(=O)[C@H](Cc2c[nH]c3ccccc23)NC(=O)[C@@H]2C[C@H](n3cc(-c4ccc(C(C)C)cc4)nn3)CN2C1=O [compound 21] (H-DNI[X16]WK-NH2; lactam 1-6) | ~900 nM | 900 ± 45 nM | 
18 | CC[C@H](C)[C@@H]1NC(=O)[C@H](CC(N)=O)NC(=O)[C@@H](N)CC(=O)NCCCC[C@@H](C(N)=O)NC(=O)[C@H](Cc2c[nH]c3ccccc23)NC(=O)[C@@H]2C[C@H](n3cc(Cc4ccc(Cl)c(F)c4)nn3)CN2C1=O [cPT 32] (H-DNI[X12]WK-NH2; lactam 1-6) | ~7300 nM | 7300 ± 740 nM | 
19 | CC[C@H](C)[C@@H]1NC(=O)[C@H](CC(N)=O)NC(=O)[C@@H](N)CC(=O)NCCCC[C@@H](C(N)=O)NC(=O)[C@H](Cc2c[nH]c3ccccc23)NC(=O)[C@@H]2C[C@H](n3cc(Cc4ccc(C)cc4)nn3)CN2C1=O [cPT 24] (H-DNI[X10]WK-NH2; lactam 1-6 (inferred); N-terminus and C-terminus assumed) | ~180 nM | 180 ± 9 nM | 
20 | CC[C@H](C)[C@@H]1NC(=O)[C@H](CC(N)=O)NC(=O)[C@@H](N)CC(=O)NCCCC[C@@H](C(N)=O)NC(=O)[C@H](Cc2c[nH]c3ccccc23)NC(=O)[C@@H]2C[C@H](n3cc(-c4cc5ccccc5cn4)nn3)CN2C1=O [compound 30] (H-DNI[X13]WK-NH2; lactam 1-6) | ~5000 nM | 5000 ± 850 nM | 
